From patent US20240246942A1, “KINASE INHIBITORS FOR THE TREATMENT OF NEURODEGENERATIVE DISEASES” (priority 2020, published 2024) come the findings set out here.

Common to all, as to assay: biochemical
Test [1] has as its target T1, panel of 374 wild-type kinases (Homo sapiens, UniProt Q06187).
T1 construct: purchased Reaction Biology Corporation
As to conditions: read-out: % Enzyme Activity (relative to DMSO controls), BTK.

Test [2] addresses T2, panel of 374 wild-type kinases (Homo sapiens, UniProt P29597).
T2 construct: purchased Reaction Biology Corporation
As to conditions: read-out: % Enzyme Activity (relative to DMSO controls), kinase TYK2.

Test [3] has as its target T3, panel of 374 wild-type kinases (Homo sapiens, UniProt P51812).
T3 construct: purchased Reaction Biology Corporation
The settings on record: read-out: % Enzyme Activity (relative to DMSO controls), kinase RSK2.

Test [4] addresses T4, panel of 374 wild-type kinases (Homo sapiens, UniProt P23443).
T4 construct: purchased Reaction Biology Corporation
As to conditions: read-out: % Enzyme Activity (relative to DMSO controls), kinase p70S6K/RPS6KB1.

The target of test [5] is T5, panel of 374 wild-type kinases (Homo sapiens, UniProt Q7KZI7).
T5 construct: purchased Reaction Biology Corporation
The settings on record: read-out: % Enzyme Activity (relative to DMSO controls), MARK2/PAR-1Ba.

The target in test [6] is T6, panel of 374 wild-type kinases (Homo sapiens, UniProt Q9UBS0).
T6 construct: purchased Reaction Biology Corporation
T6 sequence (Q9UBS0 whole entry): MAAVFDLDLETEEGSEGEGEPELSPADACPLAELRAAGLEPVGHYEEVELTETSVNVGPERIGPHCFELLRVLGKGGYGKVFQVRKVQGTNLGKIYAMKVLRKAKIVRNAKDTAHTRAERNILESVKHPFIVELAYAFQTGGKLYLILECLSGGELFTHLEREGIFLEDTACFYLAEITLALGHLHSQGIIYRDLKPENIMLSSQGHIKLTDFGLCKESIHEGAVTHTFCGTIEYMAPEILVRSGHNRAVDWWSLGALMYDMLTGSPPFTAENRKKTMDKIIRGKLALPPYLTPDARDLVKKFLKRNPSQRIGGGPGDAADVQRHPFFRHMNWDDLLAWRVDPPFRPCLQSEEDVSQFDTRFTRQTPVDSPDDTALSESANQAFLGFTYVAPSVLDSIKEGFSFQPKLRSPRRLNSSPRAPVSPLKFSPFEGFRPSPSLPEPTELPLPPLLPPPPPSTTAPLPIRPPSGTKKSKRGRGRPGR
As to conditions: read-out: % Enzyme Activity (relative to DMSO controls), kinase p70S6Kb/RPS6KB2.

The target of test [7] is T7, panel of 374 wild-type kinases (Homo sapiens, UniProt Q06418).
T7 construct: purchased Reaction Biology Corporation
T7 sequence (Q06418 41-890): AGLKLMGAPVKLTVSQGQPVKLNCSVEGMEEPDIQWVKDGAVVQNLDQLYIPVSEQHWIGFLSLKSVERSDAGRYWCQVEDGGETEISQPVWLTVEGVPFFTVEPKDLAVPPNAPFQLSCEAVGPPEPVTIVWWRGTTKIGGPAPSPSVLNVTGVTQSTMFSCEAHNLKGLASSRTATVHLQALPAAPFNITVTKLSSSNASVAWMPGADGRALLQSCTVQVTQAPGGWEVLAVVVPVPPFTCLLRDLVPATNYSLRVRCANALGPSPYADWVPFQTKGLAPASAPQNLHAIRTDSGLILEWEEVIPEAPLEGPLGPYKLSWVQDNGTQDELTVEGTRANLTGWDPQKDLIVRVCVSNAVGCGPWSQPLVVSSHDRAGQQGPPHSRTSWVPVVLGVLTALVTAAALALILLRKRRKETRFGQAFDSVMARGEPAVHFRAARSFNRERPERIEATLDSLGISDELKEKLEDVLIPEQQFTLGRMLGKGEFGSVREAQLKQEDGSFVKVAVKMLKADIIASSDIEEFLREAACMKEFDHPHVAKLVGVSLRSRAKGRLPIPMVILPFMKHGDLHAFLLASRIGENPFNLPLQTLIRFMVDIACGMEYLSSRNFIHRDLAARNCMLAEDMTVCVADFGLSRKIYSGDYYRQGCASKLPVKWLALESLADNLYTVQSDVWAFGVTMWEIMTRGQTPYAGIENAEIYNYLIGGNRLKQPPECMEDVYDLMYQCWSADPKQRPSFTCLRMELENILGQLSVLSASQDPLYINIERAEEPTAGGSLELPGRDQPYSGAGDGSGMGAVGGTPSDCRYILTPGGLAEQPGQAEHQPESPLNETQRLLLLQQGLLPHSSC
The settings on record: read-out: % Enzyme Activity (relative to DMSO controls), kinase TYRO3/SKY.

In test [8] the target is T8, panel of 374 wild-type kinases (Homo sapiens, UniProt Q9Y3S1).
T8 construct: purchased Reaction Biology Corporation
T8 sequence (Q9Y3S1 whole entry): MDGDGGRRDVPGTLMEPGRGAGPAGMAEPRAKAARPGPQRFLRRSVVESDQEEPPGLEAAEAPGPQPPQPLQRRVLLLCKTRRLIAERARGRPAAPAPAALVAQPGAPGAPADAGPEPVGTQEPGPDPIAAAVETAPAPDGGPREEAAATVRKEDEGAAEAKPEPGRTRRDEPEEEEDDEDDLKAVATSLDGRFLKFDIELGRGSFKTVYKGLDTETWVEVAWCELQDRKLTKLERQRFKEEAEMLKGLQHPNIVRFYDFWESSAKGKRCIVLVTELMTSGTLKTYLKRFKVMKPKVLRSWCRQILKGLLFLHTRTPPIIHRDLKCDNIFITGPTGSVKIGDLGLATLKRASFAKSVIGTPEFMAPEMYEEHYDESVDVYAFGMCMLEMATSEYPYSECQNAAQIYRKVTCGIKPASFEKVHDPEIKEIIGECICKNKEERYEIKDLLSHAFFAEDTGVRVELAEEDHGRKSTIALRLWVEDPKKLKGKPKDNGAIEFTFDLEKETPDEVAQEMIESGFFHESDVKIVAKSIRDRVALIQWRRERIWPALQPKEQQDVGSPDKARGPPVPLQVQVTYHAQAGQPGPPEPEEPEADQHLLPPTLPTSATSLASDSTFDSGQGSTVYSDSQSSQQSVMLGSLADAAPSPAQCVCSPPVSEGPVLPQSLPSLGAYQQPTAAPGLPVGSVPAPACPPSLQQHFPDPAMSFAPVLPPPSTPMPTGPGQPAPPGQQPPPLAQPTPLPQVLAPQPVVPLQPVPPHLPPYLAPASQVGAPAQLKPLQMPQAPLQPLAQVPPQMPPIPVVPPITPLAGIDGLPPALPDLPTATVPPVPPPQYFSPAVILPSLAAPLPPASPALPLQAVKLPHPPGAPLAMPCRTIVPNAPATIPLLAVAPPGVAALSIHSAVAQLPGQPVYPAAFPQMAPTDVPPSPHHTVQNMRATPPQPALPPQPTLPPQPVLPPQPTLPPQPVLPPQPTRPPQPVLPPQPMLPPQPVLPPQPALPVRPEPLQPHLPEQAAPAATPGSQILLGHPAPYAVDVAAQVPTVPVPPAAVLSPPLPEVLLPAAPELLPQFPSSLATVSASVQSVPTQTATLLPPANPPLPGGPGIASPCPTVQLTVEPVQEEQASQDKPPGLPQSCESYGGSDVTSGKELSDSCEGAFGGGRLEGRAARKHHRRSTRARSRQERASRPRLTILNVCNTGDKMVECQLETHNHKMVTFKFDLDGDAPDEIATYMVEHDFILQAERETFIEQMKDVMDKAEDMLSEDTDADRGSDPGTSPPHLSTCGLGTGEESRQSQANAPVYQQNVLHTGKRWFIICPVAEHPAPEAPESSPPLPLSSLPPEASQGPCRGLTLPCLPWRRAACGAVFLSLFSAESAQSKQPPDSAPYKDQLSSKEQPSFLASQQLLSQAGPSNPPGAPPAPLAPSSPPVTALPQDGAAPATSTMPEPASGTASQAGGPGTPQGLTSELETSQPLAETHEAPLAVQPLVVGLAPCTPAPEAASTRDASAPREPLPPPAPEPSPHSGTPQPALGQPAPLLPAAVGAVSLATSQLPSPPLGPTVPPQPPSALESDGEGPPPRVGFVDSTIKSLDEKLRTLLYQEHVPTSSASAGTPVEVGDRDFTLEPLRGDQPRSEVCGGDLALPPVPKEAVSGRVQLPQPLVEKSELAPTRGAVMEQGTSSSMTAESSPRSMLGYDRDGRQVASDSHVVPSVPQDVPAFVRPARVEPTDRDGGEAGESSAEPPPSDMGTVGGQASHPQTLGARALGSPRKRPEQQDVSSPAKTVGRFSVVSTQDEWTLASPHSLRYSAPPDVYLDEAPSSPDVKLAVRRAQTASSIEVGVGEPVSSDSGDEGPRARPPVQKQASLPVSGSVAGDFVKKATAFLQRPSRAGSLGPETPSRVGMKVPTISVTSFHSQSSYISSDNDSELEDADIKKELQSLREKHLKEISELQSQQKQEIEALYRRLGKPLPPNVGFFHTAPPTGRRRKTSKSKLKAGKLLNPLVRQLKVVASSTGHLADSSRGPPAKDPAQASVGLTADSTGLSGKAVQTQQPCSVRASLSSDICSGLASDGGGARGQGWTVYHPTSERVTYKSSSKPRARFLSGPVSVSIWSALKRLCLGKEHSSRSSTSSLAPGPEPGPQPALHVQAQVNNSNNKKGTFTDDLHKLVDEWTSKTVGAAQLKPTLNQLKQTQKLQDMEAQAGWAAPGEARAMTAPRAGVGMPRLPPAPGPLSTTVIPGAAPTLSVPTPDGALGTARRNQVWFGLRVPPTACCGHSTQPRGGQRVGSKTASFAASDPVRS
The settings on record: read-out: % Enzyme Activity (relative to DMSO controls), kinase WNK2.

The target in test [9] is T9, panel of 374 wild-type kinases (Homo sapiens, UniProt Q9Y6M4).
T9 construct: purchased Reaction Biology Corporation
T9 sequence (Q9Y6M4 whole entry): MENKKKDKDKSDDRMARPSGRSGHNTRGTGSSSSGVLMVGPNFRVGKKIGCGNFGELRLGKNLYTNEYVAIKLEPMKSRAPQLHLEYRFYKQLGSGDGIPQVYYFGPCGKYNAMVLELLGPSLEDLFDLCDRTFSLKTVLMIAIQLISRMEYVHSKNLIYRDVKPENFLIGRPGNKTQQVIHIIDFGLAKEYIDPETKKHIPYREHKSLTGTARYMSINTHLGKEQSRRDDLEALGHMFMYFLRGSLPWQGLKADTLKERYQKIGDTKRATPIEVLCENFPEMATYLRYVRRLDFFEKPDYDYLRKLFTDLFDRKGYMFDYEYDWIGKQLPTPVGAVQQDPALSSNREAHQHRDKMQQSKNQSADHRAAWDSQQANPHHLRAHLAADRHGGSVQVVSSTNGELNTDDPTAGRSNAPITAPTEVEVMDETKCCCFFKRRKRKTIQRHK
As to conditions: read-out: % Enzyme Activity (relative to DMSO controls), CK1g3.

The target in test [10] is T10, panel of 374 wild-type kinases (Homo sapiens, UniProt Q9UEE5).
T10 construct: purchased Reaction Biology Corporation
T10 sequence (Q9UEE5 1-414): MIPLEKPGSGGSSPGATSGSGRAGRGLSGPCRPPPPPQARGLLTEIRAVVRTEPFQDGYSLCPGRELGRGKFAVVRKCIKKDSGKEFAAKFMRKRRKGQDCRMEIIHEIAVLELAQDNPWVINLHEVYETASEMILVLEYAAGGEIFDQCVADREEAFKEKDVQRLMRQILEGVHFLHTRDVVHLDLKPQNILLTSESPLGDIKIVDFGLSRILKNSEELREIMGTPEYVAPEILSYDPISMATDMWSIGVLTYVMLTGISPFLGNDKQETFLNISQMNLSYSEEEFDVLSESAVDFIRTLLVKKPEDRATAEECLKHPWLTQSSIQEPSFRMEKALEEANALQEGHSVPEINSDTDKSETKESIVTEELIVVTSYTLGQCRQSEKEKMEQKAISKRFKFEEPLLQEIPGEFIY
The settings on record: read-out: % Enzyme Activity (relative to DMSO controls), DRAK1/STK17A.

T2 sequence (P29597 whole entry): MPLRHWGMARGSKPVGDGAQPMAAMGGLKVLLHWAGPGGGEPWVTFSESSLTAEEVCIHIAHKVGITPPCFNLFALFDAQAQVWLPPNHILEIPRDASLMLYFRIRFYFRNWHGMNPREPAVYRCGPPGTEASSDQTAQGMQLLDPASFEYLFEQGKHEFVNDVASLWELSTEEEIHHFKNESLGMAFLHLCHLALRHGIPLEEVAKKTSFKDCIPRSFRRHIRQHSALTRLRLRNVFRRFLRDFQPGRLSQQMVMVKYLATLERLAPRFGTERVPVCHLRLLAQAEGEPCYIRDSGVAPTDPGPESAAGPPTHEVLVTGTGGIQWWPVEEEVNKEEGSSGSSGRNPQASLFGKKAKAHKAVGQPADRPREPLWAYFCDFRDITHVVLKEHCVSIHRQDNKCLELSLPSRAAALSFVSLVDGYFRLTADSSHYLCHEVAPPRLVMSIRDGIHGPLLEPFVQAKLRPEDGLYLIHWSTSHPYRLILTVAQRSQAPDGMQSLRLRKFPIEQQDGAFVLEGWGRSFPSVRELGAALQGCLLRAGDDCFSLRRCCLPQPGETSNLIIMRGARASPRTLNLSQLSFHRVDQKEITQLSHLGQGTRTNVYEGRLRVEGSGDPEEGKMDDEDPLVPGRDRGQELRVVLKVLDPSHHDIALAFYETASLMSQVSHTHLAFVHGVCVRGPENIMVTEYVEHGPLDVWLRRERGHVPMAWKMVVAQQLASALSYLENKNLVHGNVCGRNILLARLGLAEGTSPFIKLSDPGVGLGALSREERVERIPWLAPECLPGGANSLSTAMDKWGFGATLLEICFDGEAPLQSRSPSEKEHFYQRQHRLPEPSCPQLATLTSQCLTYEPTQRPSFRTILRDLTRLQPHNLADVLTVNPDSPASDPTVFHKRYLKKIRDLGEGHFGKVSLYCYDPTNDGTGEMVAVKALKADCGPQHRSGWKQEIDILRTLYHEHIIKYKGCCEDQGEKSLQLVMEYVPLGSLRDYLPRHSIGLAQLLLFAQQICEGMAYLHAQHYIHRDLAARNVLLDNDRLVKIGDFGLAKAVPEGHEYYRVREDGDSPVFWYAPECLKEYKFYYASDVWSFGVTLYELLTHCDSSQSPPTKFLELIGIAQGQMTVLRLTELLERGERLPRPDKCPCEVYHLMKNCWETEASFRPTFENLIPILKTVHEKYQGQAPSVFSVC
T4 sequence (P23443 whole entry): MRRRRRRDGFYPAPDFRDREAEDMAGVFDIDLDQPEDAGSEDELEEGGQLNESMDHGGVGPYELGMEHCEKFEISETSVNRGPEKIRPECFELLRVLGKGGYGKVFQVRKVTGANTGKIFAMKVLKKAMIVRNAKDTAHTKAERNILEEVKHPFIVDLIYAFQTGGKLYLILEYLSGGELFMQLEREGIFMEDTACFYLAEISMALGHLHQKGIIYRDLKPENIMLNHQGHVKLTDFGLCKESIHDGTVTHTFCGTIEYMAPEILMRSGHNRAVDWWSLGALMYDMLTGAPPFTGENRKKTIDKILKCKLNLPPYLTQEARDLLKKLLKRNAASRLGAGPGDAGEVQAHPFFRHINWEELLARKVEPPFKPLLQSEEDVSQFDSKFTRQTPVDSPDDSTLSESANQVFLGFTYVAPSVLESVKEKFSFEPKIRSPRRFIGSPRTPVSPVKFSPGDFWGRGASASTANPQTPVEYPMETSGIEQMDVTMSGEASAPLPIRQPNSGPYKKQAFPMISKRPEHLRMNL

Take `O=C(Nc1cnn(-c2csc(C(=O)NC3COC3)c2)c1)Nc1ccccc1Cl` [Compound 17, 4-(4-(3-(2-chlorophenyl)ureido)-1H-pyrazol-1-yl)-N-(oxetan-3-yl)thiophene-2-carboxamide]: the remaining activity at 5 µM turned out to be 92.6% in test [1]; 95.9% in [2]; 101% in test [3]; 92.1% in test [4]; 104% in [5]; 94.2% in [6]. Also, the remaining activity at 5 µM in [7] turned out to be 75.4%; in [8], 96.3%; in test [9], 103%; in [10], 98.4%.

With `O=C(Nc1cnn(-c2csc(C(=O)NC3COC3)c2)c1)Nc1c(F)cccc1Cl` [Compound 25, 4-(4-(3-(2-chloro-6-fluorophenyl)ureido)-1H-pyrazol-1-yl)-N-(oxetan-3-yl)thiophene-2-carboxamide], the remaining activity at 5 µM is 89.3% in test [1]; 89.3% in [2]; 79.9% in test [3]; 97.7% in [4]; 90.7% in [5]; 101% in test [6]. For the same compound, the remaining activity at 5 µM in [7] was found to be 68.4%; in test [8], 91.9%; in [9], 92.6%; in [10] it was 89.4%.

In the case of `Cc1sc(C(=O)NC2COC2)cc1-n1cc(NC(=O)Nc2c(F)cccc2Cl)cn1` [Compound 27, 4-(4-(3-(2-chloro-6-fluorophenyl)ureido)-1H-pyrazol-1-yl)-5-methyl-N-(oxetan-3-yl)thiophene-2-carboxamide], the remaining activity at 10 µM was determined as 87.6% in [1] (10 uM); 114% in test [2] (10 uM); 73% in [3] (10 uM); 92.1% in [4] (10 uM); 99.8% in [5] (10 uM); 98.9% in [6] (10 uM). Further, the remaining activity at 10 µM amounted to 98.8% in [7] (10 uM), 91.1% in test [8] (10 uM), 91.3% in [9] (10 uM) and 111% in [10] (10 uM).
